Reference: patent publication US8754051B2, “Peptide modulators of the δPKC interaction with the d subunit of F1Fo ATP synthase/ATPase and uses thereof” (Georgia Regents Research Institute, Inc., priority 2009, dated 2014)
Peptide text beside a SMILES is read from it.

Assays:
[1] = system: isolated rat hearts, ischemia/reperfusion injury; experiment: Infarct size (TTC staining) after ischemia/reperfusion in isolated rat hearts
Protocol: Hearts were excised from 2 month-old Sprague-Dawley rats and subjected to Langendorff-mode perfusion with oxygenated Kreb's buffer. Following a 20 min equilibration to attain stable beating hearts either were perfused continuously for 110 minutes (Con) or were subjected to 20 minutes of global no-flow ischemia and then 90 minutes of oxygenated reperfusion (IR). For groups receiving the δPKC-dF1Fo inhibitor or facilitator peptides (complete amino acid sequences shown in FIG. 13) 20 nM concentrations of the peptides were given at the onset of the 90 minute reperfusion period for 20 minutes. At the termination of experimentation atria were removed and ventricles were rapidly washed in chilled Kreb's buffer and partially frozen to facilitate cutting the hearts into sections. […]
Histograms represent mean±S.E. infarction expressed as a percentage of the entire left ventricular area. […]
The effects of the peptides of the present invention on infarct size following IR injury in the Langendorff model was assessed, Hearts were perfused in the absence of peptide, under normoxic conditions for 110 minutes (Con), or were given a 20 minute global, no flow, ischemia exposure followed by normoxic perfusion for 90 minutes. δPKC-dF1Fo modulatory peptides (20 nM) were administered at the onset of reperfusion for 20 minutes. […]

δPKC binding to dF1Fo = target: T1, δPKC binding to dF1Fo (Rattus norvegicus, UniProt P09215); experiment: PKC overlay binding assay; details: overlay with purified PKC isozymes, DG/PS; read-out: IC50 for modulation of δPKC-dF1Fo binding
T1 construct: with purified rat brain PKC (mixture of PKC isozymes); from tissue; host or cells: PKC from rat brain; F1Fo ATPase holo-enzyme from adult rat cardiac ventricle

myocardial ATP levels = experiment: Myocardial ATP levels in hearts of streptozotocin-treated rats; details: hearts 6 weeks after STZ injection (50 mg/kg)
[2] = system: mitochondrial δPKC levels; experiment: Mitochondrial δPKC levels (Western blot) in hearts of streptozotocin-treated rats; details: hearts 6 weeks after STZ injection (50 mg/kg)
δPKC-dF1Fo co-IP = target: T2, δPKC-dF1Fo co-IP (Rattus norvegicus, UniProt P09215); experiment: δPKC co-immunoprecipitation with dF1Fo in NCM mitochondria after phorbol ester; format: cell-based; details: 100 nM 4-β PMA, 20 min, NCMs
T2 construct: endogenous in cells; host or cells: neonatal rat cardiac myocytes (NCMs), isolated mitochondria
Protocol: FIGS. 1A-1B: Delta protein kinase C (δPKC) co-immunoprecipitates (co-IPs) with the “d” subunit of F1Fo ATP synthase (dF1Fo) following 100 nM 4-β PMA treatment. Neonatal cardiac myocytes (NCMs) were treated with 100 nM 4-α PMA (0 nM in Figure), 3 nM 4-β PMA for 1 hr. or 100 nM 4-β PMA for 20 min. Mitochondria were isolated using Percoll/Optiprep density gradients and then subjected to immunoprecipitations using antisera to dF1Fo. IPs were resolved by […] and transferred onto nitrocellulose paper (NCP) followed by Western blot analyses using antisera against αPKC, δPKC, εPKC and ζPKC. FIG. 1A, representative autoradiographs for each PKC isozyme are shown. FIG. 1B, mean±S.E. densitometry values for three independent myocyte preparations. Asterisks indicate significant differences between 4-α PMA and 3 nM or 100 nM 4-β PMA (p<0.05). # indicates statistically significant differences between 3 and 100 nM 4-β PMA (p<0.05).
Phorbol esters such as 4-β phorbol 12-myristate-13-acetate (4-β PMA), are well known activators of most PKC isozymes and should be useful in determining if one or more PKC isozymes induced effects on the F1Fo complex. […] In FIG. 1, 4-α PMA is shown as “0” concentration and […] values are reported for 3-100 nM concentrations. IPs were next subjected to Western blot analyses with anti-PKC isozyme-selective antisera. […]

T1 sequence (P09215 whole entry): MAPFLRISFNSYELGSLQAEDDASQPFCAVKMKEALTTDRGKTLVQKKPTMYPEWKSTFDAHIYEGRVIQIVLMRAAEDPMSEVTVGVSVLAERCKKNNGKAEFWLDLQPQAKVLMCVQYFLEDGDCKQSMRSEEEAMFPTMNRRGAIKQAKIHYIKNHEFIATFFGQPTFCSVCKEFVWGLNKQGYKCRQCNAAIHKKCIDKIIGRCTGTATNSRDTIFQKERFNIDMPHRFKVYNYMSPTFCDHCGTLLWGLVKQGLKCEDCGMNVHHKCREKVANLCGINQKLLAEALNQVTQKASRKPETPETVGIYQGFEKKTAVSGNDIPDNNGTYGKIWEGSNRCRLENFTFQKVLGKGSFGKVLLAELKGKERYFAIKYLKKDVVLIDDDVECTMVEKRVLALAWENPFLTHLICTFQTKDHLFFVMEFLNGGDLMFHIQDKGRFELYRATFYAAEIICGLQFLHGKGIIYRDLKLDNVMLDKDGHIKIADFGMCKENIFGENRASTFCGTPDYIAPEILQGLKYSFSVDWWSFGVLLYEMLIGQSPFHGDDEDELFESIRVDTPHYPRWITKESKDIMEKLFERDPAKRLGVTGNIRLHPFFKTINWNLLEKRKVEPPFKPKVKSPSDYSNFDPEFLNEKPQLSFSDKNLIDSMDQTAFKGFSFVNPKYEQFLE
T2 sequence (P09215 whole entry): as above
T2 sequence (P31399 2-161 partner limits assumed): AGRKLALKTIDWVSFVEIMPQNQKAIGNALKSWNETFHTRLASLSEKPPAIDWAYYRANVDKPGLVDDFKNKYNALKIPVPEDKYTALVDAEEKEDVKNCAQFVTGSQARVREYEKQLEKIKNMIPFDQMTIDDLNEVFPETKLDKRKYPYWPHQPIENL

Work on “YGRKKRRQRRR-MLATRALSLIGKRAISTSVC-RVRE YEKQLEKIKNMI-DYKDDDDK (YGRKKRRQRRRMLATRALSLIGKRAISTSVCRVREYEKQLEKIKNMIDYKDDDDK; sequence of mitochondrial-targeted facilitator of dPKC-dF1Fo interaction) [PKC-dF1Fo agonist peptide]” yielded an enhancement of infarction [1] of 27±3%.

For `CC[C@H](C)[C@H](NC(=O)[C@@H](NC(=O)[C@H](CCCCN)NC(=O)[C@H](CC(C)C)NC(=O)[C@H](C)NC(=O)[C@H](CC(C)C)NC(=O)[C@H](CCCCN)NC(=O)[C@H](CCCNC(=N)N)NC(=O)CNC(=O)[C@H](C)N)[C@@H](C)O)C(=O)N[C@@H](CC(=O)O)C(=O)N[C@@H](Cc1c[nH]c2ccccc12)C(=O)N[C@H](C(=O)N[C@@H](CO)C(=O)N[C@@H](Cc1ccccc1)C(=O)O)C(C)C` [SEQ ID NO: 1, AGRKLALKTIDWVSF] (H-AGRKLALKTIDWVSF-OH; N-terminus and C-terminus assumed), the IC50 (δPKC binding to dF1Fo) was ~300 µM.

In the case of `CN(N=O)C(=O)N[C@H]1C(O)O[C@H](CO)[C@@H](O)[C@@H]1O` (mixture of isomers) [STZ, streptozotocin], the “decrease of myocardial ATP levels” value (myocardial ATP levels) is reported as 2.3±0.1 fold and the “increase in mitochondrial δPKC levels” value [2] is reported as “greater than 10 fold”.

Compound `CC[C@H](C)[C@H](NC(=O)[C@H](CCSC)NC(=O)[C@H](CC(N)=O)NC(=O)[C@H](CCCCN)NC(=O)[C@@H](NC(=O)[C@H](CCCCN)NC(=O)[C@H](CCC(=O)O)NC(=O)[C@H](CC(C)C)NC(=O)[C@H](CCC(N)=O)NC(=O)[C@H](CCCCN)NC(=O)[C@H](CCC(=O)O)NC(=O)[C@H](Cc1ccc(O)cc1)NC(=O)[C@H](CCC(=O)O)NC(=O)[C@H](CCCNC(=N)N)NC(=O)[C@@H](NC(=O)[C@@H](N)CCCNC(=N)N)C(C)C)[C@@H](C)CC)C(=O)O` [SEQ ID NO: 2, RVREYEKQLEKIKNMI] (H-RVREYEKQLEKIKNMI-OH; N-terminus and C-terminus assumed) has an IC50 (δPKC binding to dF1Fo) of ~300 µM.

For `CCCCCCCCCCCCCC(=O)O[C@@H]1[C@@H](C)[C@@]2(O)[C@@H](C=C(CO)C[C@]3(O)C(=O)C(C)=C[C@@H]23)[C@@H]2C(C)(C)[C@]12OC(C)=O` [4-β PMA, 4-β phorbol 12-myristate-13-acetate], the “increase of δPKC-dF1Fo co-IP above 3 nM 4-β PMA-induced levels” value (δPKC-dF1Fo co-IP) was 3.4±0.3 fold.
